From paper PMC6917776, “Discovery of a chemical probe for PRDM9” (Nature Communications, 2019)

Key:
Experiment in all cases: CelltiterGlo viability cell assay
Format in all cases: cell-based
CAL851 = test system: CAL851
Protocol: (§1) Supplementary Figure 13. […] Viability of
(§2) (a) Multiple Myeloma lines and (b) Breast Cancer cell lines following 3 or 6 days treatment with […]
(§3) manufacturer’s instructions as described in the Supplementary methods. Data are normalized to DMSO control. N=3 biological replicates, +/- SEM. Source data are provided as a Source Data […]
(§4) CelltiterGlo viability cell assay
(§5) Cells were seeded in 96 well plates at per-well densities of 10000 (MDA-MB436, ATCC-HTB130), 15000 (8226, kind gift from Rodger Tiedemann, Princess Margaret Cancer Centre), […]
(§6) kind gift from Rodger Tiedemann, Princess Margaret Cancer Centre) and 50000 (CAL851, kind gift from Mathieu Lupien, Princess Margaret Cancer Centre) and were treated at increasing concentrations of compounds ranging from 0.01 μM to 30 μM and assessed for proliferation using CelltiterGlo (Promega) following manufacturer’s instructions, as readout on days 3 and 6 as indicated. All cell lines were mycoplasma negative, as determined by MycoAlert™ Mycoplasma Detection Kit(Lonza). […]

RPMI-8226 = test system: RPMI-8226
Protocol: as §1, §2, §3, §4, §5, §6

SKMM2 = test system: SKMM2
Protocol: as §1, §2, §3, §4, §5, §6

[1] = up to 30 μM, days 3 and 6, Prdm9 expressing line

## COc1cc(OC)cc(-c2noc(N3CCN(C)C4(CCN(c5ccccc5)CC4)C3)n2)c1 [MRK-740-NC]
CAL851; [1]
  Effect on proliferation (in words): did not have any significant effect
RPMI-8226; up to 30 μM, days 3 and 6, matched control line
  Effect on proliferation (in words): did not have any significant effect
SKMM2; [1]
  Effect on proliferation (in words): did not have any significant effect

## COc1cc(OC)cc(-c2noc(N3CCN(C)C4(CCN(c5ccccc5)CC4)C3)n2)c1 [MRK-740N]
CAL851; CAL851, 3 day, 0.01 uM
  viability Average: 102.43
  viability Replicate 1: 104.57
  viability Replicate 2: 100.53
  viability Replicate 3: 102.20
CAL851; CAL851, 3 day, 0.03 uM
  viability Average: 101.16
  viability Replicate 1: 95.74
  viability Replicate 2: 100.94
  viability Replicate 3: 106.79
CAL851; CAL851, 3 day, 0.1 uM
  viability Average: 104.74
  viability Replicate 1: 106.32
  viability Replicate 2: 96.40
  viability Replicate 3: 111.49
CAL851; CAL851, 3 day, 0.3 uM
  viability Average: 106.71
  viability Replicate 1: 111.33
  viability Replicate 2: 101.82
  viability Replicate 3: 106.99
CAL851; CAL851, 3 day, 1 uM
  viability Average: 96.30
  viability Replicate 1: 98.38
  viability Replicate 2: 96.24
  viability Replicate 3: 94.27
CAL851; CAL851, 3 day, 3 uM
  viability Average: 97.71
  viability Replicate 1: 91.85
  viability Replicate 2: 95.91
  viability Replicate 3: 105.37
CAL851; CAL851, 3 day, 9.5 uM
  viability Average: 95.86
  viability Replicate 1: 89.90
  viability Replicate 2: 94.75
  viability Replicate 3: 102.94
CAL851; CAL851, 3 day, 30 uM
  viability Average: 88.50
  viability Replicate 1: 89.70
  viability Replicate 2: 92.97
  viability Replicate 3: 82.83
CAL851; CAL851, 6 day, 0.01 uM
  viability Average: 99.23
  viability Replicate 1: 100.50
  viability Replicate 2: 95.18
  viability Replicate 3: 102.02
CAL851; CAL851, 6 day, 0.03 uM
  viability Average: 103.06
  viability Replicate 1: 101.15
  viability Replicate 2: 96.95
  viability Replicate 3: 111.07
CAL851; CAL851, 6 day, 0.1 uM
  viability Average: 96.92
  viability Replicate 1: 94.85
  viability Replicate 2: 96.64
  viability Replicate 3: 99.28
CAL851; CAL851, 6 day, 0.3 uM
  viability Average: 101.38
  viability Replicate 1: 95.47
  viability Replicate 2: 94.74
  viability Replicate 3: 113.94
CAL851; CAL851, 6 day, 1 uM
  viability Average: 102.45
  viability Replicate 1: 100.66
  viability Replicate 2: 100.26
  viability Replicate 3: 106.42
CAL851; CAL851, 6 day, 3 uM
  viability Average: 100.92
  viability Replicate 1: 96.08
  viability Replicate 2: 95.38
  viability Replicate 3: 111.29
CAL851; CAL851, 6 day, 9.5 uM
  viability Average: 96.88
  viability Replicate 1: 95.12
  viability Replicate 2: 99.49
  viability Replicate 3: 96.04
CAL851; CAL851, 6 day, 30 uM
  viability Average: 87.30
  viability Replicate 1: 87.23
  viability Replicate 2: 87.15
  viability Replicate 3: 87.51
RPMI-8226; 8226, 3 day, 0.01 uM
  viability Average: 101.19
  viability Replicate 1: 100.76
  viability Replicate 2: 100.18
  viability Replicate 3: 102.63
RPMI-8226; 8226, 3 day, 0.03 uM
  viability Average: 99.22
  viability Replicate 1: 99.66
  viability Replicate 2: 95.69
  viability Replicate 3: 102.30
RPMI-8226; 8226, 3 day, 0.1 uM
  viability Average: 101.66
  viability Replicate 1: 102.47
  viability Replicate 2: 99.05
  viability Replicate 3: 103.47
RPMI-8226; 8226, 3 day, 0.3 uM
  viability Average: 100.14
  viability Replicate 1: 98.42
  viability Replicate 2: 99.23
  viability Replicate 3: 102.78
RPMI-8226; 8226, 3 day, 1 uM
  viability Average: 99.15
  viability Replicate 1: 95.47
  viability Replicate 2: 99.58
  viability Replicate 3: 102.40
RPMI-8226; 8226, 3 day, 3 uM
  viability Average: 100.92
  viability Replicate 1: 100.27
  viability Replicate 2: 100.06
  viability Replicate 3: 102.42
RPMI-8226; 8226, 3 day, 9.5 uM
  viability Average: 90.08
  viability Replicate 1: 80.69
  viability Replicate 2: 88.67
  viability Replicate 3: 100.87
RPMI-8226; 8226, 3 day, 30 uM
  viability Average: 40.55
  viability Replicate 1: 58.77
  viability Replicate 2: 22.31
  viability Replicate 3: 40.58
RPMI-8226; 8226, 6 day, 0.01 uM
  viability Average: 98.95
  viability Replicate 1: 98.27
  viability Replicate 2: 97.90
  viability Replicate 3: 100.68
RPMI-8226; 8226, 6 day, 0.03 uM
  viability Average: 98.07
  viability Replicate 1: 95.77
  viability Replicate 2: 97.65
  viability Replicate 3: 100.80
RPMI-8226; 8226, 6 day, 0.1 uM
  viability Average: 98.68
  viability Replicate 1: 95.86
  viability Replicate 2: 100.16
  viability Replicate 3: 100.02
RPMI-8226; 8226, 6 day, 0.3 uM
  viability Average: 96.98
  viability Replicate 1: 94.57
  viability Replicate 2: 97.72
  viability Replicate 3: 98.63
RPMI-8226; 8226, 6 day, 1 uM
  viability Average: 97.56
  viability Replicate 1: 97.46
  viability Replicate 2: 98.37
  viability Replicate 3: 96.84
RPMI-8226; 8226, 6 day, 3 uM
  viability Average: 100.28
  viability Replicate 1: 98.97
  viability Replicate 2: 101.92
  viability Replicate 3: 99.95
RPMI-8226; 8226, 6 day, 9.5 uM
  viability Average: 107.21
  viability Replicate 1: 106.83
  viability Replicate 2: 105.76
  viability Replicate 3: 109.04
RPMI-8226; 8226, 6 day, 30 uM
  viability Average: 80.58
  viability Replicate 1: 102.03
  viability Replicate 2: 55.75
  viability Replicate 3: 83.98
SKMM2; SKMM2, 3 day, 0.01 uM
  viability Average: 99.67
  viability Replicate 1: 98.81
  viability Replicate 2: 100.27
  viability Replicate 3: 99.94
SKMM2; SKMM2, 3 day, 0.03 uM
  viability Average: 99.81
  viability Replicate 1: 100.19
  viability Replicate 2: 99.28
  viability Replicate 3: 99.96
SKMM2; SKMM2, 3 day, 0.1 uM
  viability Average: 99.75
  viability Replicate 1: 99.33
  viability Replicate 2: 101.27
  viability Replicate 3: 98.65
SKMM2; SKMM2, 3 day, 0.3 uM
  viability Average: 100.91
  viability Replicate 1: 100.74
  viability Replicate 2: 101.32
  viability Replicate 3: 100.69
SKMM2; SKMM2, 3 day, 1 uM
  viability Average: 99.32
  viability Replicate 1: 99.24
  viability Replicate 2: 100.37
  viability Replicate 3: 98.34
SKMM2; SKMM2, 3 day, 3 uM
  viability Average: 97.16
  viability Replicate 1: 96.17
  viability Replicate 2: 98.52
  viability Replicate 3: 96.79
SKMM2; SKMM2, 3 day, 9.5 uM
  viability Average: 95.36
  viability Replicate 1: 96.79
  viability Replicate 2: 94.04
  viability Replicate 3: 95.26
SKMM2; SKMM2, 3 day, 30 uM
  viability Average: 58.34
  viability Replicate 1: 67.94
  viability Replicate 2: 41.11
  viability Replicate 3: 65.95
SKMM2; SKMM2, 6 day, 0.01 uM
  viability Average: 99.21
  viability Replicate 1: 91.53
  viability Replicate 2: 105.08
  viability Replicate 3: 101.01
SKMM2; SKMM2, 6 day, 0.03 uM
  viability Average: 96.26
  viability Replicate 1: 90.23
  viability Replicate 2: 98.46
  viability Replicate 3: 100.08
SKMM2; SKMM2, 6 day, 0.1 uM
  viability Average: 98.07
  viability Replicate 1: 90.96
  viability Replicate 2: 102.71
  viability Replicate 3: 100.56
SKMM2; SKMM2, 6 day, 0.3 uM
  viability Average: 97.57
  viability Replicate 1: 90.30
  viability Replicate 2: 102.21
  viability Replicate 3: 100.20
SKMM2; SKMM2, 6 day, 1 uM
  viability Average: 94.68
  viability Replicate 1: 89.98
  viability Replicate 2: 95.60
  viability Replicate 3: 98.45
SKMM2; SKMM2, 6 day, 3 uM
  viability Average: 95.79
  viability Replicate 1: 90.06
  viability Replicate 2: 96.19
  viability Replicate 3: 101.13
SKMM2; SKMM2, 6 day, 9.5 uM
  viability Average: 94.06
  viability Replicate 1: 88.71
  viability Replicate 2: 96.00
  viability Replicate 3: 97.48
SKMM2; SKMM2, 6 day, 30 uM
  viability Average: 64.98
  viability Replicate 1: 81.69
  viability Replicate 2: 45.98
  viability Replicate 3: 67.29
